From patent EP0808303B1, “5-(4-SUBST.-PIPERIDINYL-1)-3-ARYL-PENTANOIC ACID DERIVATIVES AS TACHYKININ RECEPTOR ANTAGONIST” (AstraZeneca AB, priority 1995, dated 1996) come the findings set out here.

In one experiment the target is NK1 receptor (Oryctolagus cuniculus, UniProt G1SEI7). Briefly: Rabbit Pulmonary Artery: NK1 in vitro functional assay (Test C). The format is cell-based. The note with it: -log molar KB against agonist ASMSP. As for the experimental part:
Rabbit Pulmonary Artery: NK1 in vitro functional assay (Test C)
Male New Zealand white rabbits are killed by lethal injection (Nembutal, 60 mg/kg into a cannulated ear vein). Heparin, 0.0025 ml/kg of a 1000 U/ml solution, is injected into the ear vein prior to nembutal in order to decrease blood coagulation. The left and right branches of the pulmonary artery are isolated from the rest of the lung tissue and cut in half to provide four ring segments from each animal. […] Changes in tension are measured on a Grass polygraph via Grass FT-03 force transducers. […]
Potencies of the compounds are determined by calculating the apparent dissociation constants (KB) for each concentration tested using the standard equation: KB = [antagonist]/(dose ratio - 1) [formula] where dose ratio = antilog[(agonist-log molar EC50 without compound) - (agonist-log molar EC50 with compound)]. The KB values are converted to the negative logarithms and expressed as -log molar KB (i.e. pKB). […] The EC50 values are converted to negative logarithms and expressed as -log molar EC50. Maximum relaxation responses to ASMSP are determined by expressing the maximum response to the agonist as a percentage of the relaxation caused by papaverine.

The next experiment addresses T1, human NK1 receptor (Homo sapiens, UniProt P25103).
T1 construct: expressed in transfected cells; host or cells: Mouse Erythroleukemia (MEL) cells
Briefly: SP Receptor Binding Assay (Test A). To be noted: binding of SP at human NK1 receptor expressed in MEL cells. The text has this: SP Receptor Binding Assay (Test A)
The human NK1 receptor was isolated and characterized as described in: B. Hopkins, et al. "Isolation and characterization of the human lung NK1 receptor cDNA" Biochem. Biophys. Res. Comm., 1991, 180, 1110-1117; and the NK1 receptor was expressed in Mouse Erythroleukemia (MEL) cells using a procedure similar to that described in Test B below.

Another experiment has as its target T2, NK2 (Cavia porcellus, UniProt Q64077).
T2 construct: The trachea are removed, trimmed of excess tissue (including removal of epithelium) and cut in spiral fashion; from tissue; host or cells: guinea pig trachea strips
T2 sequence (Q64077 1-402): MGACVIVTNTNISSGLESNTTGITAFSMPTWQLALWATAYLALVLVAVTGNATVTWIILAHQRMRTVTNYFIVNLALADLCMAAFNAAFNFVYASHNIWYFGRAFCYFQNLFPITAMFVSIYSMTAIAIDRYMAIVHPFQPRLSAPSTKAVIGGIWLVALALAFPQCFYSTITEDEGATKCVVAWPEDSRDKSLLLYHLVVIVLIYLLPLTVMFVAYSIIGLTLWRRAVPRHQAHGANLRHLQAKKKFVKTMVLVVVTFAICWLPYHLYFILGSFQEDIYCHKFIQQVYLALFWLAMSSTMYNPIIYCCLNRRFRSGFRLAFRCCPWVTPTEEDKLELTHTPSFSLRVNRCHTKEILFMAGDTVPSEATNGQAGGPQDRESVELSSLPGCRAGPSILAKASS
Briefly: Guinea Pig Trachea Assay: NK2 in vitro functional assay (Test D). The format is cell-based. To be noted: -log molar KB against agonist BANK. As for the experimental part: Guinea Pig Trachea Assay: NK2 in vitro functional assay (Test D)
Male guinea pigs are killed by a sharp blow to the back of the head followed by exsanguination. The trachea are removed, trimmed of excess tissue (including removal of epithelium) and cut in spiral fashion. Each longitudinally cut tracheal segment is suspended as a strip in a water-jacketed (37.5°C) tissue bath containing a physiological salt solution of the following composition (mM): NaCl, 119; KCl 4.6; CaCl2, 1.8; MgCl2, 0.5; NaH2PO4, 1; NaHCO3, 25; glucose, 11; and indomethacin, 0.005 (to inhibit cyclooxygenase); gassed continuously with 95% O2-%5 CO2. […] Contractile responses are measured on a Grass polygraph via Grass FT-03 force transducers. […]
Potencies of the compounds are evaluated by calculating apparent dissociation constants (KB) for each concentration tested using the standard equation: KB = [antagonist]/(dose ratio-1) [formula] where dose ratio = antilog[(agonist -log molar EC50 without compound) - (agonist-log molar EC50 with compound)]. The KB values are converted to the negative logarithms and expressed as -log molar KB (i.e. pKB). […] The EC50 values are converted to the negative logarithms and expressed as -log molar EC50. Maximum contractile responses to BANK are determined by expressing the maximum response to BANK as a percentage of the initial contraction caused by capasacin.

In another experiment the target is T3, human NK2 receptor (Homo sapiens, UniProt P21452).
T3 sequence (P21452 1-398): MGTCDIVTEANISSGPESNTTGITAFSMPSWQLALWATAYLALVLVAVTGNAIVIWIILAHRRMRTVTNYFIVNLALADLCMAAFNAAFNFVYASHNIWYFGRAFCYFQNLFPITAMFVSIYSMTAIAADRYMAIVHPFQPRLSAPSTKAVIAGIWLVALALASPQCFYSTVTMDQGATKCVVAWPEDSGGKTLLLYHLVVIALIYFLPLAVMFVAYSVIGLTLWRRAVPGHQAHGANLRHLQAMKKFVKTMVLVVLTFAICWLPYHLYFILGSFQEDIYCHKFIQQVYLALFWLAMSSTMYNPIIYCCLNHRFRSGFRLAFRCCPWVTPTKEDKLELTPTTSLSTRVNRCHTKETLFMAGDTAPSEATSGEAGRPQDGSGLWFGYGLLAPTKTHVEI

T1 sequence (P25103 whole entry): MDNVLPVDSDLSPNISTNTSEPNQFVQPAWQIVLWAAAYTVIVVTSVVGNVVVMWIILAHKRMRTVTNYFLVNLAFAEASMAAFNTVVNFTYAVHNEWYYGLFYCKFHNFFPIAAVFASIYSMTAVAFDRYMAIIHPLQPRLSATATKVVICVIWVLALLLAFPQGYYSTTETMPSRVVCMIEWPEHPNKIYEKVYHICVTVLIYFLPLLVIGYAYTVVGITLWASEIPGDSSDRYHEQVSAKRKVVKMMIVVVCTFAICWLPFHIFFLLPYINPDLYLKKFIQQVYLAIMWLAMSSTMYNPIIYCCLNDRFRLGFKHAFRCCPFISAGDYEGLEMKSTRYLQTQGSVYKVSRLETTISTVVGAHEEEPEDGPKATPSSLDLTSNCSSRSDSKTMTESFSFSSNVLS
Chain of NK1 receptor (G1SEI7 1-407): as the sequence (P25103 whole entry) above, with S12F, N189D, P369A, D371E, T376N, C386G, D391N, S402Y, V405M counted along it

At NK1 receptor, `O=C(CC(CCN1CCC(O)(c2ccccc2)CC1)c1ccc(Cl)c(Cl)c1)NCc1ccccc1` (stereo not shown) [Example 1, N-Benzyl-5-(4-hydroxy-4-phenylpiperidino)-3-(3,4-dichlorophenyl)pentanamide] had a pKB of 5.41. Further, the inhibitory constant (Ki) at human NK1 receptor was 30 nM; on human NK2 receptor it was 15 nM. The Kb at NK2 was 794 nM.

Broadly, the pKB is −log10 of the KB, conventionally taken in molar units. Low readings indicate a large KB, high ones a small KB. By Ki is commonly meant a dissociation constant, usually derived from enzyme kinetics or from competition with a known ligand. High values mean weaker binding, low ones tighter binding.
